# In patent US11447470B2, “Pyrimidinone-containing compound, preparation method thereof, pharmaceutical composition and application thereof” (YUNNAN UNIVERSITY, priority 2018, dated 2022):
# Where two headings read alike, the source gives them in different places.
# How the values were obtained:
# Format in all cases: cell-based
# [1] = Cytotoxicity experiment (MTT method) on C8166 cells; conditions: human
# Experimental: (§1) C8166 cells infected with HIV-1 were used for determining the anti-HIV biological activity at the cellular level. The specific method was described below.
# (§2) Cytotoxicity experiment: The toxicity of the compounds on C8166 cells was determined by MTT method. In 96-well cell culture plates, the compounds were subjected to 5-fold serial dilution and 100 μL of C8166 cell suspension (4×10^5/mL) was added into each well. Triplicate wells were set for each concentration. […] The cells were incubated at 37° C. in a 5% CO2 incubator for three days, followed by the addition of MTT solution into each well, and then the cells were incubated at 37° C. for 4 hours. 10% SDS-50% DMF was added into each well and the cells were incubated at 37° C. in a 5% CO2 incubator overnight. After mixing evenly, the OD values were measured by BIO-TEK ELx800 ELISA instrument (determination wavelength: 570 nm; reference wavelength: 630 nm).
# C8166 cells = experiment: as above
# Experimental: as §1, §2
# HIV-1IIIB = experiment: Syncytium inhibition experiment, C8166 cells infected with HIV-1IIIB; conditions: Human immunodeficiency virus 1, 72 h; HIV-1IIIB (MOI=0.04) in C8166 cells, syncytium count, three days
# Experimental: as §1
# Syncytium inhibition experiment: 100 μL of C8166 cell suspension (4×10^5/mL) was seeded into each well of 96-well cell culture plates containing 5-fold serial dilutions of the compounds, followed by addition of HIV-1IIIB diluted supernatant (MOI=0.04). Triplicate wells were set for each serial concentration. […] The cells were cultured at 37° C. in a 5% CO2 incubator for three days. The number of the syncytia was counted in five non-overlapping fields of view by using an inverted microscope (100×).
SMILES,"CC50 at 3 days ([1]; C8166 cells in vitro, read-out: CC50 values on C8166 cells) [nM]","CC50 (C8166 cells; C8166 cells, MTT, three days, read-out: CC50) [nM]",EC50 (HIV-1IIIB) [nM],CC50 at 3 days [1] [nM],"CC50 (C8166 cells; human, 3 days) [nM]"
CCc1c(CC2CCCCC2)nc(SCc2n[nH]c(-c3ccc(Cl)c(Cl)c3)c2Cl)[nH]c1=O [Compound I-13],> 200000,> 200000,349,,
COc1ccc(-c2cc(CSc3nc(CC4CCCCC4)c(C(C)C)c(=O)[nH]3)n[nH]2)cc1 [Compound I-40],,,12,> 200000,> 200000
CCc1c(Cc2ccccc2)nc(SCc2cc(-c3ccc(F)cc3)[nH]n2)[nH]c1=O [Compound I-49],,,837,> 200000,> 200000
CCc1c(Cc2cc(F)cc(F)c2)nc(SCc2cc(-c3ccc(F)cc3)[nH]n2)[nH]c1=O [Compound I-52],,,97,> 200000,> 200000
CCc1c(Cc2ccccc2)nc(SCc2n[nH]c(-c3ccc(F)c(F)c3)c2Cl)[nH]c1=O [Compound I-53],,,141,> 200000,> 200000
CCc1c(Cc2c(Cl)cccc2Cl)nc(SCc2n[nH]c(-c3ccc(F)c(F)c3)c2Cl)[nH]c1=O [Compound I-55],,,700,> 200000,> 200000
CCc1c(Cc2cc(F)cc(F)c2)nc(SCc2n[nH]c(-c3ccccc3)c2Cl)[nH]c1=O [Compound I-69],,,55,> 200000,
CCc1c(Cc2c(Cl)cccc2Cl)nc(SCc2n[nH]c(-c3ccccc3)c2Cl)[nH]c1=O [Compound I-70],,,92,> 200000,
CCc1c(Cc2ccccc2)nc(SCc2n[nH]c(-c3ccccc3)c2Cl)[nH]c1=O [Compound I-71],,,51,> 200000,
CCc1c(Cc2ccc3c(c2)OCO3)nc(SCc2n[nH]c(-c3ccccc3)c2Cl)[nH]c1=O [Compound I-72],,,81,> 200000,
